Patent US9822069B2, “Urea derivative or pharmacologically acceptable salt thereof” (KYORIN PHARMACEUTICAL CO. LTD., priority 2013, dated 2017)

Key:
human FPRL1 = biological target: T1, human FPRL1 (Homo sapiens, UniProt P25090); assay: Measurement test of agonist activity on human FPRL1 (test of calcium mobilization in cell, HEK293 with human FPRL1 and Gα15 expression vectors); assay type: cell-based; conditions: calcium mobilization in HEK293 cells with human FPRL1 and Gα15 expression vectors
T1 construct: expressed in transfected cells; host or cells: HEK293 (JCRB9068, NIBIO), transient transfection with pCMV-script vectors using Lipofectamine 2000
T1 sequence (P25090 1-351): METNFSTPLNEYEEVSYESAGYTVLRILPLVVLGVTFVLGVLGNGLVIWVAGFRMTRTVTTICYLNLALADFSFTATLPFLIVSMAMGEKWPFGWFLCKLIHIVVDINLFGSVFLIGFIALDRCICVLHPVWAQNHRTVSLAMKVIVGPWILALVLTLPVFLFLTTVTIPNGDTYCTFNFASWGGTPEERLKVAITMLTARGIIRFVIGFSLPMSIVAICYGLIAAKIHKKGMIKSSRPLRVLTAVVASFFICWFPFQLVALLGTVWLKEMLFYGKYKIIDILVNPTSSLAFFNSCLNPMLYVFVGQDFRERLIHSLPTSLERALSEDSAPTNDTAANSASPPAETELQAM
Summary of the method: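 HEK293 transiently co-transfected with human FPRL1 and Gα15, plated 24 h before assay, loaded with Fluo-4 NW dye plus probenecid. Compounds in eight 10-fold dilutions (DMSO stocks 10^−2 to 10^−9 M, then diluted 100-fold in assay buffer); calcium mobilization read on Flexstation for EC50.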

mouse (BALB/c, male) = assay: Effect of lipopolysaccharide induction on neutrophilic infiltration in mouse lung; assay type: in vivo; conditions: neutrophil infiltration in BAL fluid, LPS-exposed BALB/c mouse, oral; for inhibition in vivo at 3 mg/kg / inhibition in vivo at 1 mg/kg: 5 h, read-out: SUPPRESSION RATIO
Experimental: Effect of Lipopolysaccharide Induction on Neutrophilic Infiltration in Mouse Lung A compound to be tested was orally administrated to a mouse (BALB/c, male), and after 30 minutes, the mouse was placed in a plastic container. Lipopolysaccharide (0.3 mg/mL) dissolved in physiological saline was aerosolized with an ultrasonic wave nebulizer (NE-U17, OMRON Corporation), and exposed to the mouse for 10 minutes. After 5 hours, the anesthetized mouse was sacrificed by exsanguination. A cannula was inserted in the respiratory tract and bronchoalveolar lavage (BAL) with 1 mL of 0.85% NaCl liquid containing 0.4% sodium citrate was carried out. This operation was repeated 3 times, to obtain a BAL fluid. The BAL fluid was centrifuged at 4° C. and ×200 g for 5 minutes, and the pellet was suspended in a physiological saline containing 0.1% BSA. The number of white blood cells was counted using Turks solution with a microscope, and the total white blood cell count was calculated. The white blood cells were fixed on a glass slide using Cytospin 3 (Thermo BioAnalysis Japan K. K.). The cells were stained with Diff-Quik (SYSMEX INTERNATIONAL REAGENTS CO., LTD.), and the number thereof was counted with a microscope, and the neutrophil ratio was calculated. The neutrophil ratio was multiplied by the total white blood cell count to calculate the total neutrophil count. An effect of the compound to be tested represents a percentage (%) of suppression ratio relative to the neutrophil count in a control.

| SMILES | EC50 (human FPRL1) | also measured |
| --- | --- | --- |
| COc1ccc([C@@H]2CN(C)C(=O)C2NC(=O)Nc2ccc(Cl)cc2)cc1 (mixture of isomers) [Example 1-55, (±)-trans-1-(4-chlorophenyl)-3-[4-(4-methoxyphenyl)-1-methyl-2-oxopyrrolidin-3-yl]urea] | 1.02 nM | inhibition in vivo at 3 mg/kg (mouse (BALB/c, male); dose 3 mg/kg): 83.7% |
| COc1ccc([C@@H]2CNC(=O)[C@H]2NC(=O)Nc2ccc(F)cc2)c(F)c1 (single isomer, unassigned) [EXAMPLE 1-9, (−)-1-[(3S*,4R*)-4-(2-fluoro-4-methoxyphenyl)-2-oxopyrrolidin-3-yl]-3-(4-fluorophenyl)urea] | 0.45 nM | inhibition in vivo at 3 mg/kg (mouse (BALB/c, male); dose 3 mg/kg): 98.5% |
| COc1cnc([C@@H]2CNC(=O)[C@H]2NC(=O)Nc2ccc(F)cc2)c(F)c1 (single isomer, unassigned) [EXAMPLE 1-18, (−)-1-[(3S*,4R*)-4-(3-fluoro-5-methoxypyridin-2-yl)-2-oxopyrrolidin-3-yl]-3-(4-fluorophenyl)urea] | 0.36 nM | inhibition in vivo at 1 mg/kg (mouse (BALB/c, male); dose 1 mg/kg): 98.3% |
| COc1cc(F)c([C@@H]2CN/C(=N\OCCO)[C@H]2NC(=O)Nc2ccc(F)cc2)c(F)c1 (single isomer, unassigned) [EXAMPLE 32-5, (−)-1-{(3S*,4R*,Z)-4-(2,6-difluoro-4-methoxyphenyl)-2-[(2-hydroxyethoxy)imino]pyrrolidin-3-yl}-3-(4-fluorophenyl)urea] | 0.03 nM | inhibition in vivo at 1 mg/kg (mouse (BALB/c, male); dose 1 mg/kg): 99.8% |
| COc1cc(F)c([C@@H]2CN(CCO)C(=O)[C@H]2NC(=O)Nc2ccc(F)cc2)c(F)c1 (single isomer, unassigned) [EXAMPLE 26-1, (−)-1-[(3S*,4R*)-4-(2,6-Difluoro-4-methoxyphenyl)-1-(2-hydroxyethyl)-2-oxopyrrolidin-3-yl]-3-(4-fluorophenyl)urea] | 0.07 nM | inhibition in vivo at 1 mg/kg (mouse (BALB/c, male); dose 1 mg/kg): 99.6% |
| COc1cc(F)c([C@@H]2CNC(=O)[C@H]2NC(=O)Nc2ccc(Cl)nc2)c(F)c1 (relative stereo) [Example 1-31, (−)-1-(6-chloropyridin-3-yl)-3-[(3S*,4R*)-4-(2,6-difluoro-4-methoxyphenyl)-2-oxopyrrolidin-3-yl]urea] | 2.67 nM | inhibition in vivo at 1 mg/kg (mouse (BALB/c, male); dose 1 mg/kg): 69.7% |
| CO/N=C1\NC[C@@H](c2ccc(OC)cc2)[C@@H]1NC(=O)Nc1ccc(F)cc1 (single isomer, unassigned) [EXAMPLE 32-1, (−)-1-(4-Fluorophenyl)-3-[(3S*,4R*,Z)-2-(methoxyimino)-4-(4-methoxyphenyl)pyrrolidin-3-yl]urea] | 0.13 nM | inhibition in vivo at 3 mg/kg (mouse (BALB/c, male); dose 3 mg/kg): 99% |
| COc1cc(F)c([C@@H]2CNC(=O)[C@H]2NC(=O)Nc2ccc(C)c(O)c2)c(F)c1 (relative stereo) [Example 1-68, (−)-1-[(3S*,4R*)-4-(2,6-difluoro-4-methoxyphenyl)-2-oxopyrrolidin-3-yl]-3-(3-hydroxy-4-methyl)phenyl)urea] | 0.08 nM | SUPPRESSION RATIO (%) (mouse (BALB/c, male); dose 3 mg/kg): 85.6% |
| COc1ccc([C@@H]2CNC(=O)C2NC(=O)Nc2ccc(F)cc2)cc1 (mixture of isomers) [Example 1-54, (±)-trans-1-(4-fluorophenyl)-3-[4-(4-methoxyphenyl)-2-oxopyrrolidin-3-yl]urea] | 0.11 nM | inhibition in vivo at 3 mg/kg (mouse (BALB/c, male); dose 3 mg/kg): 98.6% |
| N#Cc1ccc(NC(=O)N[C@@H]2C(=O)NC[C@H]2c2cc3c(cc2F)OCC3)cc1 (relative stereo) [Example 1-84, (−)-1-(4-cyanophenyl)-3-[(3S*,4R*)-4-(6-fluoro-2,3-dihydrobenzofuran-5-yl)-2-oxopyrrolidin-3-yl]urea] | 1.92 nM | SUPPRESSION RATIO (%) (mouse (BALB/c, male); dose 1 mg/kg): 99.2% |
| CCN1C[C@@H](c2ccc(OC)cc2)[C@H](NC(=O)Nc2ccc(F)cc2)C1=O (relative stereo) [Example 12-1, (−)-1-[(3S*,4R*)-1-Ethyl-4-(4-methoxyphenyl)-2-oxopyrrolidin-3-yl]-3-(4-fluorophenyl) urea] | 0.13 nM | inhibition in vivo at 3 mg/kg (mouse (BALB/c, male); dose 3 mg/kg): 97.4% |
| O=C(Nc1ccc(F)cc1)N[C@@H]1C(=O)NC[C@H]1c1cc2c(cc1F)OCC2 (single isomer, unassigned) [EXAMPLE 1-16, (−)-1-[(3S*,4R*)-4-(6-fluoro-2,3-dihydrobenzofuran-5-yl)-2-oxopyrrolidin-3-yl]-3-(4-fluorophenyl)urea] | 0.24 nM | inhibition in vivo at 1 mg/kg (mouse (BALB/c, male); dose 1 mg/kg): 95.8% |
| COc1ccc([C@@H]2CN(C)C(=O)[C@H]2NC(=O)Nc2ccc(F)cc2)cc1 (relative stereo) [EXAMPLE 1-7, 1-(4-fluorophenyl)-3-[(3S*,4R*)-4-(4-methoxyphenyl)-1-methyl-2-oxopyrrolidin-3-yl]urea] | 0.22 nM | inhibition in vivo at 1 mg/kg (mouse (BALB/c, male); dose 1 mg/kg): 96.9% |
| COc1cc(F)c([C@@H]2CN/C(=N\O)[C@H]2NC(=O)Nc2ccc(F)cc2)c(F)c1 (single isomer, unassigned) [EXAMPLE 33-2, (−)-1-((3S*,4R*,Z)-4-(2,6-Difluoro-4-methoxyphenyl)-2-(hydroxyimino)pyrrolidin-3-yl)-3-(4-fluorophenyl)urea] | 0.03 nM |  |
| COc1cc(F)c([C@@H]2CNC(=O)[C@H]2NC(=O)Nc2ccc(C3CC3)cc2)c(F)c1 (relative stereo) [Example 1-62, (−)-1-(4-cyclopropylphenyl)-3-[(3S*,4R*)-4-(2,6-difluoro-4-methoxyphenyl)-2-oxopyrrolidin-3-yl]urea] | 1.05 nM |  |
| COc1cc(F)c([C@@H]2CN(CCO)C(=O)[C@H]2NC(=O)Nc2cc3ccccc3s2)c(F)c1 (relative stereo) [Example 24-10, (−)-1-(benzo[b]thiophen-2-yl)-3-[(3S*,4R*)-4-(2,6-difluoro-4-methoxyphenyl)-1-(2-hydroxyethyl)-2-oxopyrrolidin-3-yl]urea] | 1 nM |  |
| NC(=O)c1cc(F)c([C@@H]2CNC(=O)[C@H]2NC(=O)Nc2ccc(F)cc2)c(F)c1 (single isomer, unassigned) [EXAMPLE 31-1, (−)-3,5-Difluoro-4-{(3R*,4S*)-4-[3-(4-fluorophenyl)ureido]-5-oxopyrrolidin-3-yl}benzamide] | 1.94 nM |  |
| COc1cc(F)c([C@@H]2CN(Cc3nnc(C)o3)C(=O)[C@H]2NC(=O)Nc2ccc(F)cc2)c(F)c1 (single isomer, unassigned) [EXAMPLE 24-18, (−)-1-{(3S*,4R*)-4-(2,6-difluoro-4-methoxyphenyl)-1-[(5-methyl-1,3,4-oxadiazol-2-yl)methyl]-2-oxopyrrolidin-3-yl}-3-(4-fluorophenyl)urea] | 0.03 nM |  |
| COc1ccc(C2CNC(=O)C2NC(=O)Nc2ccc(F)cc2)cc1 (stereo not drawn) [Example 12-13, (+)-1-(4-fluorophenyl)-3-[4-(4-methoxyphenyl)-2-oxopyrrolidin-3-yl]urea] | 1.12 nM |  |
| COc1cc(F)c([C@@H]2CN(C)C(=O)[C@H]2NC(=O)Nc2cc3ccccc3s2)c(F)c1 (relative stereo) [Example 24-5, (−)-1-(benzo[b]thiophen-2-yl)-3-[(3S*,4R*)-4-(2,6-difluoro-4-methoxyphenyl)-1-methyl-2-oxopyrrolidin-3-yl]urea] | 1.6 nM |  |
| CC(C)(C(=O)O)N1C[C@@H](c2cc3c(cc2F)OCC3)[C@H](NC(=O)Nc2ccc(F)cc2)C1=O (relative stereo) [Example 22-2, (−)-2-{(3S*,4R*)-4-(6-Fluoro-2,3-dihydrobenzofuran-5-yl)-3-[3-(4-fluorophenyl)ureido]-2-oxopyrrolidin-1-yl}-2-methylpropanoic acid] | 0.38 nM |  |
| O=C(O)CN1C[C@@H](c2cc3c(cc2F)OCC3)[C@H](NC(=O)Nc2ccc(F)cc2)C1=O (relative stereo) [Example 16-3, (−)-2-{(3S*,4R*)-4-(6-fluoro-2,3-dihydrobenzofuran-5-yl)-3-[3-(4-fluorophenyl)ureido]-2-oxopyrrolidin-1-yl}acetic acid] | 0.75 nM |  |
| CNC(=O)C(C)N1C[C@@H](c2ccc(OC)cc2)[C@H](NC(=O)Nc2ccc(F)cc2)C1=O (single isomer, unassigned; isomer a) [Example 19-1, (−)-2-{(3S*,4R*)-3-[3-(4-Fluorophenyl)ureido]-4-(4-methoxyphenyl)-2-oxopyrrolidin-1-yl}-N-methylpropionamide (isomer A)] | 0.21 nM |  |
